Measured values: PubChem BioAssay (NCI)
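Five concentrations, 48 hours, 96-well plates. TGI denotes the concentration required for complete inhibition of growth.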

What was measured:
Test in all cases: NCI anticancer screen, dose series, 48 h
786-0 renal = test system: 786-0 renal
A498 renal = test system: A498 renal
A549 NSCLC = test system: A549 NSCLC
ACHN renal = test system: ACHN renal
BT-549 breast = test system: BT-549 breast
CAKI-1 renal = test system: CAKI-1 renal
CCRF-CEM leukemia = test system: CCRF-CEM leukemia
COLO 205 colon = test system: COLO 205 colon
DU-145 prostate = test system: DU-145 prostate
EKVX NSCLC = test system: EKVX NSCLC
HCC-2998 colon = test system: HCC-2998 colon
HCT-116 colon = test system: HCT-116 colon
HCT-15 colon = test system: HCT-15 colon
HL-60(TB) leukemia = test system: HL-60(TB) leukemia
HOP-62 NSCLC = test system: HOP-62 NSCLC
HOP-92 NSCLC = test system: HOP-92 NSCLC
HS 578T breast = test system: HS 578T breast
HT29 colon = test system: HT29 colon
IGROV1 ovarian = test system: IGROV1 ovarian
K-562 leukemia = test system: K-562 leukemia
KM12 colon = test system: KM12 colon
LOX IMVI melanoma = test system: LOX IMVI melanoma
M14 melanoma = test system: M14 melanoma
MALME-3M melanoma = test system: MALME-3M melanoma
MCF7 breast = test system: MCF7 breast
MDA-MB-231 breast = test system: MDA-MB-231 breast
MDA-MB-435 = test system: MDA-MB-435
MDA-N = test system: MDA-N
MOLT-4 leukemia = test system: MOLT-4 leukemia
NCI-H226 lung = test system: NCI-H226 lung
NCI-H23 lung = test system: NCI-H23 lung
NCI-H460 lung = test system: NCI-H460 lung
NCI-H522 lung = test system: NCI-H522 lung
NCI/ADR-RES ovarian = test system: NCI/ADR-RES ovarian
OVCAR-3 ovarian = test system: OVCAR-3 ovarian
OVCAR-4 ovarian = test system: OVCAR-4 ovarian
OVCAR-5 ovarian = test system: OVCAR-5 ovarian
OVCAR-8 ovarian = test system: OVCAR-8 ovarian
PC-3 prostate = test system: PC-3 prostate
RPMI-8226 leukemia = test system: RPMI-8226 leukemia
RXF 393 renal = test system: RXF 393 renal
SF-268 CNS = test system: SF-268 CNS
SF-295 CNS = test system: SF-295 CNS
SF-539 CNS = test system: SF-539 CNS
SK-MEL-2 melanoma = test system: SK-MEL-2 melanoma
SK-MEL-28 melanoma = test system: SK-MEL-28 melanoma
SK-MEL-5 melanoma = test system: SK-MEL-5 melanoma
SK-OV-3 ovarian = test system: SK-OV-3 ovarian
SN12C renal = test system: SN12C renal
SNB-19 CNS = test system: SNB-19 CNS
SR leukemia = test system: SR leukemia
SW-620 colon = test system: SW-620 colon
T-47D breast = test system: T-47D breast
TK-10 renal = test system: TK-10 renal
U251 CNS = test system: U251 CNS
UACC-257 melanoma = test system: UACC-257 melanoma
UACC-62 melanoma = test system: UACC-62 melanoma
UO-31 renal = test system: UO-31 renal
SNB-75 CNS = test system: SNB-75 CNS
DMS 273 small cell lung = test system: DMS 273 small cell lung
HOP-18 NSCLC = test system: HOP-18 NSCLC

Nc1nc(-c2ccc3ccccc3c2)cc(-c2cc(-c3ccc4ccccc4c3)nc(N)n2)n1
TGI (786-0 renal): > 100 µM
TGI (A498 renal): > 100 µM
TGI (A549 NSCLC): > 100 µM
TGI (ACHN renal): > 100 µM
TGI (BT-549 breast): > 100 µM
TGI (CAKI-1 renal): > 100 µM
TGI (CCRF-CEM leukemia): > 100 µM
TGI (COLO 205 colon): > 100 µM
TGI (DU-145 prostate): > 100 µM
TGI (EKVX NSCLC): > 100 µM
TGI (HCC-2998 colon): > 100 µM
TGI (HCT-116 colon): > 100 µM
TGI (HCT-15 colon): > 100 µM
TGI (HL-60(TB) leukemia): > 100 µM
TGI (HOP-62 NSCLC): > 100 µM
TGI (HOP-92 NSCLC): > 100 µM
TGI (HS 578T breast): > 100 µM
TGI (HT29 colon): > 100 µM
TGI (IGROV1 ovarian): > 100 µM
TGI (K-562 leukemia): > 100 µM
TGI (KM12 colon): > 100 µM
TGI (LOX IMVI melanoma): > 100 µM
TGI (M14 melanoma): > 100 µM
TGI (MALME-3M melanoma): > 100 µM
TGI (MCF7 breast): > 100 µM
TGI (MDA-MB-231 breast): > 100 µM
TGI (MDA-MB-435): > 100 µM
TGI (MDA-N): > 100 µM
TGI (MOLT-4 leukemia): > 100 µM
TGI (NCI-H226 lung): > 100 µM
TGI (NCI-H23 lung): > 100 µM
TGI (NCI-H460 lung): > 100 µM
TGI (NCI-H522 lung): > 100 µM
TGI (NCI/ADR-RES ovarian): > 100 µM
TGI (OVCAR-3 ovarian): > 100 µM
TGI (OVCAR-4 ovarian): > 100 µM
TGI (OVCAR-5 ovarian): > 100 µM
TGI (OVCAR-8 ovarian): > 100 µM
TGI (PC-3 prostate): > 100 µM
TGI (RPMI-8226 leukemia): > 100 µM
TGI (RXF 393 renal): > 100 µM
TGI (SF-268 CNS): > 100 µM
TGI (SF-295 CNS): > 100 µM
TGI (SF-539 CNS): > 100 µM
TGI (SK-MEL-2 melanoma): > 100 µM
TGI (SK-MEL-28 melanoma): > 100 µM
TGI (SK-MEL-5 melanoma): > 100 µM
TGI (SK-OV-3 ovarian): > 100 µM
TGI (SN12C renal): > 100 µM
TGI (SNB-19 CNS): > 100 µM
TGI (SR leukemia): > 100 µM
TGI (SW-620 colon): > 100 µM
TGI (T-47D breast): > 100 µM
TGI (TK-10 renal): > 100 µM
TGI (U251 CNS): > 100 µM
TGI (UACC-257 melanoma): > 100 µM
TGI (UACC-62 melanoma): > 100 µM
TGI (UO-31 renal): > 100 µM

CN(C)C=Nc1c2c(nc3ccccc13)CCCC2
TGI (786-0 renal): > 100 µM
TGI (A498 renal): > 100 µM
TGI (A549 NSCLC): > 100 µM
TGI (ACHN renal): > 100 µM
TGI (BT-549 breast): > 100 µM
TGI (CAKI-1 renal): > 100 µM
TGI (CCRF-CEM leukemia): > 100 µM
TGI (COLO 205 colon): > 100 µM
TGI (DU-145 prostate): > 100 µM
TGI (EKVX NSCLC): > 100 µM
TGI (HCT-116 colon): > 100 µM
TGI (HCT-15 colon): > 100 µM
TGI (HL-60(TB) leukemia): > 100 µM
TGI (HOP-62 NSCLC): > 100 µM
TGI (HOP-92 NSCLC): > 100 µM
TGI (HS 578T breast): > 100 µM
TGI (HT29 colon): > 100 µM
TGI (IGROV1 ovarian): > 100 µM
TGI (K-562 leukemia): > 100 µM
TGI (LOX IMVI melanoma): > 100 µM
TGI (M14 melanoma): > 100 µM
TGI (MALME-3M melanoma): > 100 µM
TGI (MCF7 breast): > 100 µM
TGI (MDA-MB-231 breast): > 100 µM
TGI (MDA-MB-435): > 100 µM
TGI (MDA-N): > 100 µM
TGI (MOLT-4 leukemia): > 100 µM
TGI (NCI-H226 lung): > 100 µM
TGI (NCI-H23 lung): > 100 µM
TGI (NCI-H522 lung): > 100 µM
TGI (NCI/ADR-RES ovarian): > 100 µM
TGI (OVCAR-3 ovarian): > 100 µM
TGI (OVCAR-4 ovarian): > 100 µM
TGI (OVCAR-5 ovarian): > 100 µM
TGI (OVCAR-8 ovarian): > 100 µM
TGI (PC-3 prostate): > 100 µM
TGI (RPMI-8226 leukemia): > 100 µM
TGI (RXF 393 renal): > 100 µM
TGI (SF-268 CNS): > 100 µM
TGI (SF-295 CNS): > 100 µM
TGI (SF-539 CNS): > 100 µM
TGI (SK-MEL-2 melanoma): > 100 µM
TGI (SK-MEL-28 melanoma): > 100 µM
TGI (SK-MEL-5 melanoma): > 100 µM
TGI (SK-OV-3 ovarian): > 100 µM
TGI (SN12C renal): > 100 µM
TGI (SNB-19 CNS): > 100 µM
TGI (SNB-75 CNS): > 100 µM
TGI (SR leukemia): > 100 µM
TGI (T-47D breast): > 100 µM
TGI (TK-10 renal): > 100 µM
TGI (U251 CNS): > 100 µM
TGI (UACC-257 melanoma): > 100 µM
TGI (UACC-62 melanoma): > 100 µM
TGI (UO-31 renal): > 100 µM

CC(=O)Oc1cc(OC(C)=O)c2c(c1)OC(c1ccc(OC(C)=O)c(OC(C)=O)c1)CC2=O (stereo not drawn)
TGI (A549 NSCLC): > 100 µM
TGI (CCRF-CEM leukemia): > 100 µM
TGI (COLO 205 colon): > 100 µM
TGI (DMS 273 small cell lung): > 100 µM
TGI (HCC-2998 colon): > 100 µM
TGI (HCT-116 colon): > 100 µM
TGI (HL-60(TB) leukemia): 29.7 µM
TGI (HOP-18 NSCLC): 95.8 µM
TGI (HOP-92 NSCLC): 69.4 µM
TGI (SF-295 CNS): > 100 µM
TGI (SK-MEL-5 melanoma): > 100 µM
TGI (SK-OV-3 ovarian): > 100 µM
TGI (SN12C renal): > 100 µM
TGI (SR leukemia): 49 µM
TGI (SW-620 colon): > 100 µM
TGI (TK-10 renal): > 100 µM
TGI (UO-31 renal): > 100 µM

O=C1C(c2c(O)[nH]c3ccc(I)cc23)=Nc2ccccc21
TGI (786-0 renal): 4.39 µM
TGI (A498 renal): 5.57 µM
TGI (A549 NSCLC): 20.3 µM
TGI (ACHN renal): 11.8 µM
TGI (BT-549 breast): 29.2 µM
TGI (CAKI-1 renal): > 96.5 µM
TGI (CCRF-CEM leukemia): > 100 µM
TGI (COLO 205 colon): > 100 µM
TGI (DU-145 prostate): > 100 µM
TGI (EKVX NSCLC): > 49.4 µM
TGI (HCC-2998 colon): > 22.9 µM
TGI (HCT-15 colon): > 100 µM
TGI (HL-60(TB) leukemia): > 100 µM
TGI (HOP-62 NSCLC): 30 µM
TGI (HOP-92 NSCLC): 12.4 µM
TGI (HS 578T breast): > 100 µM
TGI (HT29 colon): > 100 µM
TGI (IGROV1 ovarian): 9.24 µM
TGI (K-562 leukemia): > 100 µM
TGI (KM12 colon): > 100 µM
TGI (LOX IMVI melanoma): 34.4 µM
TGI (M14 melanoma): > 100 µM
TGI (MALME-3M melanoma): > 86.1 µM
TGI (MCF7 breast): 15.7 µM
TGI (MDA-MB-231 breast): 8.47 µM
TGI (MDA-MB-435): > 100 µM
TGI (MDA-N): > 100 µM
TGI (MOLT-4 leukemia): > 100 µM
TGI (NCI-H226 lung): 6.94 µM
TGI (NCI-H23 lung): 45.7 µM
TGI (NCI-H460 lung): > 88.6 µM
TGI (NCI-H522 lung): > 58.9 µM
TGI (NCI/ADR-RES ovarian): > 100 µM
TGI (OVCAR-3 ovarian): 29.2 µM
TGI (OVCAR-4 ovarian): > 44.7 µM
TGI (OVCAR-5 ovarian): 57.1 µM
TGI (OVCAR-8 ovarian): 4.74 µM
TGI (PC-3 prostate): 9.4 µM
TGI (RPMI-8226 leukemia): > 100 µM
TGI (RXF 393 renal): 34.6 µM
TGI (SF-268 CNS): 17.2 µM
TGI (SF-295 CNS): > 64.4 µM
TGI (SF-539 CNS): 23.3 µM
TGI (SK-MEL-2 melanoma): 15.4 µM
TGI (SK-MEL-28 melanoma): > 86.3 µM
TGI (SK-MEL-5 melanoma): 10.8 µM
TGI (SK-OV-3 ovarian): 22.8 µM
TGI (SN12C renal): > 74.1 µM
TGI (SNB-19 CNS): 42.8 µM
TGI (SNB-75 CNS): 17 µM
TGI (SR leukemia): > 100 µM
TGI (SW-620 colon): > 56.7 µM
TGI (T-47D breast): > 100 µM
TGI (TK-10 renal): 17.9 µM
TGI (U251 CNS): 7.36 µM
TGI (UACC-257 melanoma): > 75.1 µM
TGI (UACC-62 melanoma): 21.3 µM
TGI (UO-31 renal): 14.4 µM
